Columns and labels:
RPMI-8226 target cells = test: ACTR T-cell proliferation (live CD3+ T cell count, flow cytometry, 7 days); type: cell-based, human; conditions: ACTR variant SEQ ID NO: 1, E:T 1:1, hSG16.17 SEA 1 μg/mL, absence or presence of lenalidomide 1 μM, 7 day
Experimental: (§1) T-cells expressing ACTR variant SEQ ID NO: 1 (effector; E) and target cells (target; T) were incubated at a 1:1, effector-to-target ratio (30,000 T cells; 30,000 target cells) with increasing concentrations of humanized afucosylated (SEA) BCMA antibody in a 200-μL reaction volume in RPMI 1640 media supplemented with 10% fetal bovine serum and 25 U/mL IL2. Reactions were incubated in a CO2 (5%) incubator at 37 degrees C. for 7 days. The number of live CD3+ T-cells were determined at day 1 and day 7 and compared to the input number of T-cells (dotted line). Briefly, at day 1 and day 7, cells were washed twice in staining buffer before being stained with a Live/Dead eFluor-780 dye for 30 min at 4 degrees C. […] After staining, cells were washed twice again with staining buffer and staining was subsequently detected via flow cytometry. […]
Mock or ACTR T cells (effector; E) and target cells (target; T) were incubated at a 1:1, effector-to-target cell ratio in the presence and absence of the anti-BCMA antibody, hSG16.17 SEA (1 μg/mL). […] The total CD3+ T cell count was determined by flow cytometry after a 7 day incubation in a CO2 (5%) incubator. […] After staining, cells were washed twice with staining buffer and detected via flow cytometry. […]

NCI-H929 target cells = test: as above; type: cell-based, human; conditions: ACTR variant SEQ ID NO: 1, E:T 1:1, hSG16.17 SEA 1 μg/mL, absence or presence of lenalidomide 1 μM, 7 day
Experimental: as §1
Mock T cells or ACTR T cells (effector; E) and target cells (target; T) were incubated at a 1:1, effector-to-target cell ratio (30,000 target cells) with increasing concentration of humanized afucosylated anti-BCMA antibody (hSG16.17SEA) in a 200-μL reaction volume in RPMI 1640 media supplemented with 10% fetal bovine serum. […] The counts of live CD3+ T cells were determined at day 7. […] After staining, cells were washed twice again with staining buffer and staining was subsequently detected via flow cytometry. […]

Nc1cccc2c1CN(C1CCC(=O)NC1=O)C2=O (centres unmarked) [Lenalidomide, lenalidomide, reference compound]
CD3+ T cell count (RPMI-8226 target cells): further enhanced the proliferation | CD3+ T cell count (NCI-H929 target cells): further enhanced the proliferation
